# Measurements reported in paper PMC5218480 (PLoS ONE, 2017).
# Test system: MV-4-11 cells
# Assay: Gene expression microarray analysis (Affymetrix PrimeView) and GSEA
# Type: cell-based, human
# Design: RFU PODN (11730768_x_at) / Fold change /veh PODN (11730768_x_at) / RFU LINC00158 (11744669_a_at) / Fold change /veh LINC00158 (11744669_a_at) / RFU DUSP10 (11751237_a_at) / Fold change /veh DUSP10 (11751237_a_at) / RFU ID3 (11757404_x_at) / Fold change /veh ID3 (11757404_x_at) / RFU PLEKHG5 (11737974_s_at) / Fold change /veh PLEKHG5 (11737974_s_at) / RFU LRRC4B (11730491_at) / Fold change /veh LRRC4B (11730491_at) / RFU GIMAP4 (11747438_a_at) / Fold change /veh GIMAP4 (11747438_a_at) / RFU KRT8 (11758183_x_at) / Fold change /veh KRT8 (11758183_x_at) / RFU CNN1 (11734310_a_at) / Fold change /veh CNN1 (11734310_a_at) / RFU VPS37D (11726825_at) / Fold change /veh VPS37D (11726825_at) / RFU C10orf10 (11716522_x_at) / Fold change /veh C10orf10 (11716522_x_at) / RFU KIR2DL2 /// KIR2DL4 /// KIR2DL5A /// KIR2DL5B /// KIR2DS1 /// KIR2DS2 /// KIR2DS3 /// KIR2DS4 /// KIR3DL3 /// KIR3DL3 /// KIR3DS1 (11738374_at) / Fold change /veh KIR2DL2 /// KIR2DL4 /// KIR2DL5A /// KIR2DL5B /// KIR2DS1 /// KIR2DS2 /// KIR2DS3 /// KIR2DS4 /// KIR3DL3 /// KIR3DL3 /// KIR3DS1 (11738374_at) / RFU C1QL1 (11718748_at) / Fold change /veh C1QL1 (11718748_at) / RFU TMPRSS4 (11747572_a_at) / Fold change /veh TMPRSS4 (11747572_a_at) / RFU HAMP (11756126_x_at) / Fold change /veh HAMP (11756126_x_at) / RFU RNFT2 (11725882_a_at) / Fold change /veh RNFT2 (11725882_a_at) / RFU NR4A2 (11747474_a_at) / Fold change /veh NR4A2 (11747474_a_at) / RFU ABCC12 (11746883_a_at) / Fold change /veh ABCC12 (11746883_a_at) / RFU TMEM136 (11760407_x_at) / Fold change /veh TMEM136 (11760407_x_at) / RFU CLDN22 /// WWC2 (11732394_at) / Fold change /veh CLDN22 /// WWC2 (11732394_at) / RFU HLA-DPB1 (11760878_x_at) / Fold change /veh HLA-DPB1 (11760878_x_at) / RFU SPINT1 (11716480_a_at) / Fold change /veh SPINT1 (11716480_a_at) / RFU GAP43 (11754022_s_at) / Fold change /veh GAP43 (11754022_s_at) / RFU A4GNT (11735810_at) / Fold change /veh A4GNT (11735810_at) / RFU PRB3 (11715151_x_at) / Fold change /veh PRB3 (11715151_x_at) / RFU TUBB4B (11761932_at) / Fold change /veh TUBB4B (11761932_at) / RFU CAPN14 (11732068_a_at) / Fold change /veh CAPN14 (11732068_a_at) / RFU TMCC2 (11721928_a_at) / Fold change /veh TMCC2 (11721928_a_at) / RFU IRGQ (11745062_a_at) / Fold change /veh IRGQ (11745062_a_at) / RFU FAM174B (11720279_a_at) / Fold change /veh FAM174B (11720279_a_at) / RFU TMPRSS4 (11748680_a_at) / Fold change /veh TMPRSS4 (11748680_a_at) / RFU FAM212B (11763350_a_at) / Fold change /veh FAM212B (11763350_a_at) / RFU PLEKHG5 (11743358_a_at) / Fold change /veh PLEKHG5 (11743358_a_at) / RFU ZSCAN30 (11745921_a_at) / Fold change /veh ZSCAN30 (11745921_a_at) / RFU CMKLR1 (11741424_a_at) / Fold change /veh CMKLR1 (11741424_a_at) / RFU LOC101060620 /// MAPK8IP1 (11723275_at) / Fold change /veh LOC101060620 /// MAPK8IP1 (11723275_at) / RFU SPTSSB (11747773_x_at) / Fold change /veh SPTSSB (11747773_x_at) / RFU PRSS12 (11739890_at) / Fold change /veh PRSS12 (11739890_at) / RFU BIN1 (11741810_x_at) / Fold change /veh BIN1 (11741810_x_at) / RFU WNT11 (11732464_a_at) / Fold change /veh WNT11 (11732464_a_at) / RFU C10orf10 (11716521_a_at) / Fold change /veh C10orf10 (11716521_a_at) / RFU C5orf56 (11738089_at) / Fold change /veh C5orf56 (11738089_at) / RFU CYB561 (11721691_x_at) / Fold change /veh CYB561 (11721691_x_at) / RFU ANKRD19P (11752326_a_at) / Fold change /veh ANKRD19P (11752326_a_at) / RFU OR2T12 /// OR2T33 /// OR2T8 (11738714_s_at) / Fold change /veh OR2T12 /// OR2T33 /// OR2T8 (11738714_s_at) / RFU VCAN (11748164_a_at) / Fold change /veh VCAN (11748164_a_at) / RFU JSRP1 (11732532_at) / Fold change /veh JSRP1 (11732532_at) / RFU KRTAP10-11 (11738290_x_at) / Fold change /veh KRTAP10-11 (11738290_x_at) / RFU MYO3A (11730013_a_at) / Fold change /veh MYO3A (11730013_a_at) / RFU EBF3 (11725865_a_at) / Fold change /veh EBF3 (11725865_a_at) / RFU CAMK2N1 (11719241_x_at) / Fold change /veh CAMK2N1 (11719241_x_at) / RFU C5orf56 (11738088_a_at) / Fold change /veh C5orf56 (11738088_a_at) / RFU OLFML3 (11715873_a_at) / Fold change /veh OLFML3 (11715873_a_at) / RFU LOC100653217 /// NTM (11731650_a_at) / Fold change /veh LOC100653217 /// NTM (11731650_a_at) / RFU MAPK11 (11762145_a_at) / Fold change /veh MAPK11 (11762145_a_at) / RFU FIZ1 (11724087_x_at) / Fold change /veh FIZ1 (11724087_x_at) / RFU OASL (11726364_x_at) / Fold change /veh OASL (11726364_x_at) / RFU SOX15 (11748057_x_at) / Fold change /veh SOX15 (11748057_x_at) / RFU CD79A (11719716_a_at) / Fold change /veh CD79A (11719716_a_at) / RFU HIST1H1D (11736915_at) / Fold change /veh HIST1H1D (11736915_at) / RFU CASKIN2 (11723855_a_at) / Fold change /veh CASKIN2 (11723855_a_at) / RFU LOC730098 (11760151_x_at) / Fold change /veh LOC730098 (11760151_x_at) / RFU OR4N2 (11742367_at) / Fold change /veh OR4N2 (11742367_at) / RFU PRRT2 (11749266_a_at) / Fold change /veh PRRT2 (11749266_a_at) / RFU SNX32 (11753110_a_at) / Fold change /veh SNX32 (11753110_a_at) / RFU CDHR5 (11726645_a_at) / Fold change /veh CDHR5 (11726645_a_at) / RFU RCAN1 (11760418_a_at) / Fold change /veh RCAN1 (11760418_a_at) / RFU FAM167A (11723789_a_at) / Fold change /veh FAM167A (11723789_a_at) / RFU FAM26E (11764081_at) / Fold change /veh FAM26E (11764081_at) / RFU ISYNA1 (11749810_s_at) / Fold change /veh ISYNA1 (11749810_s_at) / RFU ACY1 (11761880_at) / Fold change /veh ACY1 (11761880_at) / RFU 11764098_at / Fold change /veh 11764098_at / RFU SAMD14 (11745864_x_at) / Fold change /veh SAMD14 (11745864_x_at) / RFU NPB (11741838_a_at) / Fold change /veh NPB (11741838_a_at) / RFU TMPRSS6 (11731388_a_at) / Fold change /veh TMPRSS6 (11731388_a_at) / RFU KRTAP10-2 (11738614_at) / Fold change /veh KRTAP10-2 (11738614_at) / RFU ARHGAP8 /// PRR5-ARHGAP8 (11727945_x_at) / Fold change /veh ARHGAP8 /// PRR5-ARHGAP8 (11727945_x_at) / RFU KRTAP5-7 /// NADSYN1 (11734609_at) / Fold change /veh KRTAP5-7 /// NADSYN1 (11734609_at) / RFU RASL12 (11751679_a_at) / Fold change /veh RASL12 (11751679_a_at) / RFU CDKN2B (11736163_a_at) / Fold change /veh CDKN2B (11736163_a_at) / RFU PRF1 (11729649_at) / Fold change /veh PRF1 (11729649_at) / RFU, ZNF638 /// ZNF638-IT1 / Fold change vs veh, ZNF638 /// ZNF638-IT1 / RFU, PANK3 / Fold change vs veh, PANK3 / RFU, SH3YL1 / Fold change vs veh, SH3YL1 / RFU, ZEB2 / Fold change vs veh, ZEB2 / RFU, NRIP1 / Fold change vs veh, NRIP1 / RFU, PTTG1IP / Fold change vs veh, PTTG1IP / RFU, CAPN2 / Fold change vs veh, CAPN2 / RFU, MED14 / Fold change vs veh, MED14 / RFU, SNORA58 / Fold change vs veh, SNORA58 / RFU, C1orf63 / Fold change vs veh, C1orf63 / RFU, LRRFIP1 / Fold change vs veh, LRRFIP1 / RFU, NDUFAF7 / Fold change vs veh, NDUFAF7 / RFU, SLC12A2 / Fold change vs veh, SLC12A2 / RFU, IBTK / Fold change vs veh, IBTK / RFU, ESF1 / Fold change vs veh, ESF1 / Fold change vs veh, TMEM50B / RFU, TAOK1 / Fold change vs veh, TAOK1 / RFU, ACBD3 / Fold change vs veh, ACBD3 / RFU, TMA16 / Fold change vs veh, TMA16 / RFU, RWDD3 / Fold change vs veh, RWDD3 / RFU, BCAT1 / Fold change vs veh, BCAT1 / RFU, EDEM3 / Fold change vs veh, EDEM3 / RFU, TMEM33 / Fold change vs veh, TMEM33 / RFU, WDR75 / Fold change vs veh, WDR75 / RFU, AHCTF1 / Fold change vs veh, AHCTF1 / RFU, TFRC / Fold change vs veh, TFRC / RFU, ZDHHC17 / Fold change vs veh, ZDHHC17 / RFU, NOM1 / Fold change vs veh, NOM1 / RFU, ARL8B / Fold change vs veh, ARL8B / RFU, ZBTB11 / Fold change vs veh, ZBTB11 / RFU, TAMM41 / Fold change vs veh, TAMM41 / RFU, KIAA1704 /// LOC100996395 / Fold change vs veh, KIAA1704 /// LOC100996395 / RFU, ING1 / Fold change vs veh, ING1 / RFU, TRMT61B / Fold change vs veh, TRMT61B / RFU, FUBP3 / Fold change vs veh, FUBP3 / RFU, TP53 / Fold change vs veh, TP53 / RFU, TNKS2 / Fold change vs veh, TNKS2 / RFU, ZFP14 / Fold change vs veh, ZFP14 / RFU, ACTR2 / Fold change vs veh, ACTR2 / RFU, PPP3R1 / Fold change vs veh, PPP3R1 / RFU, PIK3R1 / Fold change vs veh, PIK3R1 / RFU, HNRNPA1 / Fold change vs veh, HNRNPA1 / RFU, RNF170 / Fold change vs veh, RNF170 / RFU, ZNF28 / Fold change vs veh, ZNF28 / RFU, RNGTT / Fold change vs veh, RNGTT / RFU, OGT / Fold change vs veh, OGT / RFU, BRD1 / Fold change vs veh, BRD1 / RFU, MARS / Fold change vs veh, MARS / RFU, ZNF655 / Fold change vs veh, ZNF655 / RFU, FAHD1 / Fold change vs veh, FAHD1 / RFU, BDP1 / Fold change vs veh, BDP1 / RFU, LRRCC1 / Fold change vs veh, LRRCC1 / RFU, ARID1A / Fold change vs veh, ARID1A / RFU, ZNF146 / Fold change vs veh, ZNF146 / RFU, ZNF330 / Fold change vs veh, ZNF330 / RFU, GPN3 / Fold change vs veh, GPN3 / RFU, C9orf123 / Fold change vs veh, C9orf123 / RFU, N4BP2L2 / Fold change vs veh, N4BP2L2 / RFU, ARFIP1 / Fold change vs veh, ARFIP1 / RFU, FAM179B / Fold change vs veh, FAM179B / RFU, BCL10 / Fold change vs veh, BCL10 / RFU, UHRF1BP1L / Fold change vs veh, UHRF1BP1L / RFU, BET1 / Fold change vs veh, BET1 / RFU, CNOT2 / Fold change vs veh, CNOT2 / RFU, ZNF268 / Fold change vs veh, ZNF268 / Fold change vs veh, ZNF507 / RFU, DGCR2 / Fold change vs veh, DGCR2 / RFU, WDSUB1 / Fold change vs veh, WDSUB1 / Fold change vs veh, HSP90B1 /// MIR3652 / RFU, ADSS / Fold change vs veh, ADSS / RFU, GK / Fold change vs veh, GK / RFU, ZNF148 / Fold change vs veh, ZNF148 / RFU, TAF9 / Fold change vs veh, TAF9 / RFU, SLC1A5 / Fold change vs veh, SLC1A5 / RFU, SLMO2 / Fold change vs veh, SLMO2 / RFU, ABCC4 / Fold change vs veh, ABCC4 / RFU, LOC101060439 /// RAP1B / Fold change vs veh, LOC101060439 /// RAP1B / RFU, RFX7 / Fold change vs veh, RFX7 / RFU, GTPBP10 / Fold change vs veh, GTPBP10 / RFU, CNEP1R1 / Fold change vs veh, CNEP1R1 / RFU, BIVM-ERCC5 /// ERCC5 / Fold change vs veh, BIVM-ERCC5 /// ERCC5 / RFU, ILF3 / Fold change vs veh, ILF3 / RFU 11762660_at / Fold change /veh 11762660_at / RFU VCAN (11757783_s_at) / Fold change /veh VCAN (11757783_s_at) / RFU DDX43 (11728927_at) / Fold change /veh DDX43 (11728927_at) / RFU KRT8 (11758188_x_at) / Fold change /veh KRT8 (11758188_x_at) / RFU NKD1 (11759106_at) / Fold change /veh NKD1 (11759106_at) / RFU SRD5A1 (11742802_a_at) / Fold change /veh SRD5A1 (11742802_a_at) / RFU TPSAB1 /// TPSB2 (11721975_s_at) / Fold change /veh TPSAB1 /// TPSB2 (11721975_s_at) / RFU GSTM3 (11746129_a_at) / Fold change /veh GSTM3 (11746129_a_at) / RFU IL23R (11737362_x_at) / Fold change /veh IL23R (11737362_x_at) / RFU TMEM51 (11727254_a_at) / Fold change /veh TMEM51 (11727254_a_at) / RFU PIWIL2 (11732686_x_at) / Fold change /veh PIWIL2 (11732686_x_at) / RFU ORM1 (11744905_x_at) / Fold change /veh ORM1 (11744905_x_at) / RFU CCDC152 (11743942_at) / Fold change /veh CCDC152 (11743942_at) / RFU ECM1 (11717891_a_at) / Fold change /veh ECM1 (11717891_a_at) / RFU IL23R (11748794_a_at) / Fold change /veh IL23R (11748794_a_at) / RFU TNFAIP8L3 (11732012_x_at) / Fold change /veh TNFAIP8L3 (11732012_x_at) / RFU MBOAT4 (11741988_at) / Fold change /veh MBOAT4 (11741988_at) / RFU 11764193_at / Fold change /veh 11764193_at / RFU TMEM53 (11763286_at) / Fold change /veh TMEM53 (11763286_at) / RFU MAGEB2 (11727129_at) / Fold change /veh MAGEB2 (11727129_at) / RFU TMEM200A (11744735_a_at) / Fold change /veh TMEM200A (11744735_a_at) / RFU CCDC152 (11751479_a_at) / Fold change /veh CCDC152 (11751479_a_at) / RFU FAM211A (11726209_a_at) / Fold change /veh FAM211A (11726209_a_at) / RFU RGS16 (11746705_a_at) / Fold change /veh RGS16 (11746705_a_at) / RFU VCAN (11755009_s_at) / Fold change /veh VCAN (11755009_s_at) / RFU RHOB (11743442_s_at) / Fold change /veh RHOB (11743442_s_at) / RFU RGS16 (11720943_a_at) / Fold change /veh RGS16 (11720943_a_at) / RFU RGS16 (11720944_at) / Fold change /veh RGS16 (11720944_at) / RFU, VPS4B / Fold change vs veh, VPS4B / RFU, CREB1 / Fold change vs veh, CREB1 / RFU, DNAJC13 / Fold change vs veh, DNAJC13 / RFU, GNAQ / Fold change vs veh, GNAQ / RFU, CDK5R1 / Fold change vs veh, CDK5R1 / RFU, ZRANB3 / Fold change vs veh, ZRANB3 / RFU, CUL4A / Fold change vs veh, CUL4A / RFU, CCNY / Fold change vs veh, CCNY / RFU, UFL1 / Fold change vs veh, UFL1 / RFU, COG3 / Fold change vs veh, COG3 / RFU, DIAPH2 / Fold change vs veh, DIAPH2 / RFU, SKA2 / Fold change vs veh, SKA2 / RFU, AFF3 / Fold change vs veh, AFF3 / RFU, LMF1 / Fold change vs veh, LMF1 / RFU, IPO11 / Fold change vs veh, IPO11 / RFU, DFFB / Fold change vs veh, DFFB / RFU, FOXP1 / Fold change vs veh, FOXP1 / RFU, CARD8 / Fold change vs veh, CARD8 / RFU, STRN3 / Fold change vs veh, STRN3 / RFU, ADK / Fold change vs veh, ADK / RFU, RASSF2 / Fold change vs veh, RASSF2 / RFU, WIPF1 / Fold change vs veh, WIPF1 / RFU, LARP1B / Fold change vs veh, LARP1B / RFU, RASA1 / Fold change vs veh, RASA1 / RFU, RB1 / Fold change vs veh, RB1 / RFU, PPFIA1 / Fold change vs veh, PPFIA1 / RFU, MAT2A / Fold change vs veh, MAT2A / RFU, CCT5 / Fold change vs veh, CCT5 / RFU, WDR92 / Fold change vs veh, WDR92 / RFU, CUX1 / Fold change vs veh, CUX1 / RFU, TTC7A / Fold change vs veh, TTC7A / RFU, TMEM135 / Fold change vs veh, TMEM135 / RFU, DEPTOR / Fold change vs veh, DEPTOR / RFU, CPM / Fold change vs veh, CPM / RFU, DNAJB6 / Fold change vs veh, DNAJB6 / RFU, CACNA2D3 / Fold change vs veh, CACNA2D3 / RFU, DTX4 / Fold change vs veh, DTX4 / RFU, TFCP2 / Fold change vs veh, TFCP2 / RFU, GMCL1 /// GMCL1P1 / Fold change vs veh, GMCL1 /// GMCL1P1 / RFU, AEBP2 / Fold change vs veh, AEBP2 / RFU, SNHG1 /// SNORD22 /// SNORD25 /// SNORD26 /// SNORD27 /// SNORD28 /// SNORD29 /// SNORD31 / Fold change vs veh, SNHG1 /// SNORD22 /// SNORD25 /// SNORD26 /// SNORD27 /// SNORD28 /// SNORD29 /// SNORD31 / Fold change (Aza/veh), C12orf56 (ProbeSet 11735607_a_at) / Fold change (ACY-1035/veh), C12orf56 (ProbeSet 11735607_a_at) / Fold change (Aza/veh), FGFR1OP (ProbeSet 11751329_s_at) / Fold change (ACY-1035/veh), FGFR1OP (ProbeSet 11751329_s_at) / Fold change (Aza/veh), VPS36 (ProbeSet 11739960_a_at) / Fold change (ACY-1035/veh), VPS36 (ProbeSet 11739960_a_at) / RFU SYPL1 (11715823_x_at) / Fold change /veh SYPL1 (11715823_x_at) / RFU IGFBP7 (11715501_s_at) / Fold change /veh IGFBP7 (11715501_s_at) / RFU REEP3 (11722064_at) / Fold change /veh REEP3 (11722064_at) / RFU IGLL1 (11728026_x_at) / Fold change /veh IGLL1 (11728026_x_at): dose or concentration left out as unconfirmed
# Conditions: MV-4-11 cells, 48 hours
smiles,measurement,value
Nc1ccc(-c2cccs2)cc1NC(=O)c1ccc2c(c1)cc(C1CC1)n2CCN1CCOCC1 [ACY-1035],RFU KRT8 (11758183_x_at),18.67 RFU
